Reference: ChEMBL document CHEMBL4049409, “Structure-based discovery of LpxC inhibitors” (Bioorg Med Chem Lett, 2017)
Converted amounts (≈) assume the structure as drawn.

What was measured:
[1] = biological target: T1, UDP-3-O-acyl-N-acetylglucosamine deacetylase (Pseudomonas aeruginosa (strain ATCC 15692 / PAO1 / 1C / PRS 101 / LMG12228), UniProt P47205); test: Inhibition of LpxC in Pseudomonas aeruginosa isolate 847
T1 sequence (P47205 whole entry): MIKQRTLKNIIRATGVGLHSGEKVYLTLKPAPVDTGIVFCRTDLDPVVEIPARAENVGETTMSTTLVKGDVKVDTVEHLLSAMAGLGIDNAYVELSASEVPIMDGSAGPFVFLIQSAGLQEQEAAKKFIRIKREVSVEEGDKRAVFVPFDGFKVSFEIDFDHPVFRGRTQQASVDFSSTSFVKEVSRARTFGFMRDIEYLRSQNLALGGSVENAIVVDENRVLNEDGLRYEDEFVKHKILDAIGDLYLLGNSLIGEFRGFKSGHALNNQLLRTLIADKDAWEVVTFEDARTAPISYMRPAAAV

Pseudomonas aeruginosa [2] = test: Antibacterial activity against Pseudomonas aeruginosa isolate 847; assay type: functional
Pseudomonas aeruginosa [3] = test: Antibacterial activity against Pseudomonas aeruginosa isolate 839 harboring mexAB-oprM deletion mutant; assay type: functional
[4] = Inhibition of LpxC in Acinetobacter baumannii focus ID 961025
Acinetobacter baumannii = test: Antibacterial activity against Acinetobacter baumannii focus ID 961025; assay type: functional
[5] = Inhibition of LpxC in Klebsiella pneumoniae isolate 21 ATCC 4352
Klebsiella pneumoniae [6] = test: Antibacterial activity against Klebsiella pneumoniae isolate 21 ATCC 4352; assay type: functional
[7] = biological target: T2, UDP-3-O-acyl-N-acetylglucosamine deacetylase (Escherichia coli K-12, UniProt P0A725); test: Inhibition of LpxC in Escherichia coli isolate 35 ATCC 25922; parameters: species or system Escherichia coli ATCC 25922
T2 sequence (P0A725 whole entry): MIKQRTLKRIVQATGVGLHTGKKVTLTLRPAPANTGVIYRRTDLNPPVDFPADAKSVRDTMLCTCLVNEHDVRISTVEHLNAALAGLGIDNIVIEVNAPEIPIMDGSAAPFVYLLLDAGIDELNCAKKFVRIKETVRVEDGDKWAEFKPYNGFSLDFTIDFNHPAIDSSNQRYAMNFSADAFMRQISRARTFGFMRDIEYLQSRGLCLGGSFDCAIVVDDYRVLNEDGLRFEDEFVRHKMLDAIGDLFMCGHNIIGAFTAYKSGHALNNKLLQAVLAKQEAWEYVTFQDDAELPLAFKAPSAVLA

Pseudomonas aeruginosa [8] = test: Antibacterial activity against Pseudomonas aeruginosa isolate 44 ATCC 27853; assay type: functional
Escherichia coli [9] = test: Antibacterial activity against Escherichia coli isolate 35 ATCC 25922; assay type: functional
[10] = biological target: T1, UDP-3-O-acyl-N-acetylglucosamine deacetylase; test: Inhibition of LpxC in Pseudomonas aeruginosa isolate 44 ATCC 27853
[11] = Half life in mouse at 2 mg/kg, iv; assay type: ADME, organism-based; details: in vivo
Mus musculus [12] = test: Dose normalized AUC in mouse at 2 mg/kg, iv; assay type: ADME, organism-based; details: in vivo
Rattus norvegicus [13] = test: Dose normalized AUC in rat at 10 mg/kg, iv; assay type: ADME, organism-based; details: in vivo
[14] = biological target: T3, Muscarinic acetylcholine receptor M2 (Homo sapiens) (UniProt P08172); test: Antagonist activity at muscarinic M2 receptor (unknown origin) at 25 uM relative to control
T3 sequence (whole entry): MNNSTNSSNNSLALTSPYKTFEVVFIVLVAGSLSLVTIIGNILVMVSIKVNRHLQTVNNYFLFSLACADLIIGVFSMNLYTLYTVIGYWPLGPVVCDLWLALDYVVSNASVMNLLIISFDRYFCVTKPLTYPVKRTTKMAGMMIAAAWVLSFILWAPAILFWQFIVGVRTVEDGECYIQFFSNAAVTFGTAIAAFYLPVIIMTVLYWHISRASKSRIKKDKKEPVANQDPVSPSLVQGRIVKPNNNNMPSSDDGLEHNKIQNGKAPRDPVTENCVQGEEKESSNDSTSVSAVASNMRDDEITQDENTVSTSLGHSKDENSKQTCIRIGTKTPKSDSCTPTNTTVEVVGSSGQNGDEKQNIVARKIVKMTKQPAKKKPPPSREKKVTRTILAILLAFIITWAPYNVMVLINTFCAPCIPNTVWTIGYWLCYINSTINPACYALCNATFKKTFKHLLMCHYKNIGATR

Klebsiella pneumoniae [15] = test: Antibacterial activity against Klebsiella pneumoniae assessed as 3 log reduction in lung bacterial burden in in-vivo lung infection model; assay type: functional
[16] = Displacement of sodium channel site 2 in [3H]Batrachotoxinin from Wistar rat brain membranes after 60 mins; parameters: species or system Membrane
[17] = Clearance in cynomolgus monkey at 10 mg/kg, iv; assay type: ADME, organism-based, Macaca fascicularis; details: in vivo
[18] = Volume of distribution at steady state in mouse at 2 mg/kg, iv; assay type: ADME, organism-based; details: in vivo, read-out: Vdss
[19] = Clearance in mouse at 2 mg/kg, iv; assay type: ADME, organism-based; details: in vivo
[20] = Half life in rat at 10 mg/kg, iv; assay type: ADME, organism-based; details: in vivo
Rattus norvegicus [21] = species on record: Rattus norvegicus; test: Displacement of sodium channel site 2 in [3H]Batrachotoxinin from Wistar rat brain membranes at 25 uM after 60 mins relative to control; details: Membrane
[22] = Volume of distribution at steady state in rat at 10 mg/kg, iv; assay type: ADME, organism-based; details: in vivo, read-out: Vdss
[23] = Volume of distribution at steady state in cynomolgus monkey at 10 mg/kg, iv; assay type: ADME, organism-based, Macaca fascicularis; details: in vivo, read-out: Vdss
[24] = Fraction unbound in rat plasma at 10 uM by equilibrium dialysis method; assay type: ADME, cell-free
Cynomolgus monkey = test: Dose normalized AUC in cynomolgus monkey at 10 mg/kg, iv; assay type: ADME, organism-based, Macaca fascicularis; details: in vivo
Escherichia coli [25] = test: Antibacterial activity against Escherichia coli assessed as 2 log reduction in bladder bacterial burden in in-vivo urinary tract infection model; assay type: functional
Rattus norvegicus [26] = test: Acute toxicity in rat at 75 mg/kg using Tween-80 formulation; assay type: organism-based; details: in vivo
[27] = Bioavailability in mouse at 10 mg/kg, sc; assay type: ADME, organism-based; details: in vivo
[28] = Fraction unbound in human plasma at 10 uM by equilibrium dialysis method; assay type: ADME, cell-free
[29] = Half life in mouse at 10 mg/kg, sc; assay type: ADME, organism-based; details: in vivo
Pseudomonas aeruginosa [30] = test: Antibacterial activity against Pseudomonas aeruginosa assessed as 3-log reduction in bacterial burden in in-vivo lung infection model; assay type: functional
[31] = Aqueous solubility of the compound in pH 7.4 buffer; assay type: physicochemical
[32] = biological target: Sigma intracellular receptor 2 (Homo sapiens) (UniProt Q5BJF2); test: Antagonist activity at sigma2 receptor (unknown origin) at 25 uM relative to control
Sigma intracellular receptor 2 (Homo sapiens), sequence (Q5BJF2 whole entry): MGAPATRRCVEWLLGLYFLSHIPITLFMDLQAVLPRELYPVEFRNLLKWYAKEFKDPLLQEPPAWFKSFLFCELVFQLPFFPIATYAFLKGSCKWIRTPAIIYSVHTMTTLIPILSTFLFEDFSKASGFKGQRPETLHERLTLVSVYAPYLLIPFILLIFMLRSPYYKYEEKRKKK

Rattus norvegicus [33] = test: Acute toxicity in rat at 200 mg/kg using capsitol capsulated formulation; assay type: organism-based; details: in vivo
Pseudomonas aeruginosa [34] = test: Antibacterial activity against Pseudomonas aeruginosa assessed as reduction in bacterial burden in in-vivo blood infection septicemia model; assay type: functional; details: read-out: PD50
Rattus norvegicus [35] = test: Toxicity in rat at 100 mg/kg, iv administered as bolus dose using 10% capsitol formulation for 7 days; assay type: organism-based; details: in vivo, 168 h
Mus musculus [36] = test: Dose normalized AUC in mouse at 10 mg/kg, sc; assay type: ADME, organism-based; details: in vivo
[37] = Fraction unbound in cynomolgus monkey plasma at 10 uM by equilibrium dialysis method; assay type: ADME, cell-free, Macaca fascicularis
[38] = Half life in cynomolgus monkey at 10 mg/kg, iv; assay type: ADME, organism-based, Macaca fascicularis; details: in vivo
[39] = Clearance in rat at 10 mg/kg, iv; assay type: ADME, organism-based; details: in vivo
[40] = Fraction unbound in mouse plasma at 10 uM by equilibrium dialysis method; assay type: ADME, cell-free
Pseudomonas aeruginosa [41] = test: Antibacterial activity against Pseudomonas aeruginosa assessed as 3-log reduction in bacterial burden in in-vivo thigh infection model; assay type: functional
[42] = Clearance in mouse at 10 mg/kg, sc; assay type: ADME, organism-based; details: in vivo

C[C@@H](O)[C@H](N[C@H]1CCc2cc(C#Cc3ccc(CN4CCOCC4)cc3)ccc21)C(=O)NO
IC50 [1]: 2 nM | MIC (Pseudomonas aeruginosa [2]): 2 mg/L (≈ 4.45 µM) | MIC (Pseudomonas aeruginosa [3]): 0.25 mg/L (≈ 0.556 µM) | IC50 [4]: 70 nM | MIC (Acinetobacter baumannii): 32 mg/L (≈ 71.2 µM) | IC50 [5]: 2 nM | MIC (Klebsiella pneumoniae [6]): < 0.125 mg/L | IC50 [7]: 2 nM | MIC (Pseudomonas aeruginosa [8]): 8 mg/L (≈ 17.8 µM) | MIC (Escherichia coli [9]): < 0.125 mg/L | IC50 [10]: 3 nM

CC(C)(N)[C@H](N[C@H]1CCc2cc(C#Cc3ccc(Cn4ccnc4CO)cc3)ccc21)C(=O)NO
half-life [11]: 1.7 h | AUC/dose (Mus musculus [12]): 0.95 µg·h/mL/mg/kg | AUC/dose (Rattus norvegicus [13]): 1.07 µg·h/mL/mg/kg | inhibition [14]: > 50% | ED (Klebsiella pneumoniae [15]): 2.7 mg/kg | IC50 [1]: 2 nM | IC50 [16]: 400 nM | clearance [17]: 0.263 L/h/kg | MIC (Pseudomonas aeruginosa [2]): 4 mg/L (≈ 8.45 µM) | Vd [18]: 0.4 L/kg | MIC (Pseudomonas aeruginosa [3]): 0.125 mg/L (≈ 0.264 µM) | clearance [19]: 1.05 L/h/kg | half-life [20]: 1.87 h | inhibition (Rattus norvegicus [21]): 97% | Vd [22]: 0.68 L/kg | Vd [23]: 0.38 L/kg | fraction unbound at 10 µM [24]: 0.05 | AUC/dose (Cynomolgus monkey): 4.07 µg·h/mL/mg/kg | ED (Escherichia coli [25]): 15.1 mg/kg | Activity (Rattus norvegicus [26]): Toxic | bioavailability [27]: 74% | fraction unbound at 10 µM [28]: 0.06 | half-life [29]: 1.2 h | ED (Pseudomonas aeruginosa [30]): 32 mg/kg | solubility [31]: 0.85 mg/mL (≈ 1790 µM) | inhibition [32]: > 50% | Activity (Rattus norvegicus [33]): Non-Toxic | ED50 (Pseudomonas aeruginosa [34]): 13 mg/kg | MIC (Klebsiella pneumoniae [6]): 0.125 mg/L (≈ 0.264 µM) | MIC90 (Klebsiella pneumoniae [6]): 8 mg/L (≈ 16.9 µM) | IC50 [7]: 4 nM | Activity (Rattus norvegicus [35]): Non-Toxic | MIC (Pseudomonas aeruginosa [8]): 1 mg/L (≈ 2.11 µM) | MIC90 (Pseudomonas aeruginosa [8]): 4 mg/L (≈ 8.45 µM) | AUC/dose (Mus musculus [36]): 0.7 µg·h/mL/mg/kg | fraction unbound at 10 µM [37]: 0.047 | half-life [38]: 6.54 h | clearance [39]: 0.936 L/h/kg | fraction unbound at 10 µM [40]: 0.067 | MIC (Escherichia coli [9]): 0.5 to 1 mg/L (≈ 1.06 to 2.11 µM) | MIC90 (Escherichia coli [9]): 1 mg/L (≈ 2.11 µM) | ED (Pseudomonas aeruginosa [41]): 25 mg/kg | CL/F [42]: 1.46 L/h/kg | IC50 [10]: 4 nM
